Assay results as given in publication PMC6277555, “Short Symmetric-End Antimicrobial Peptides Centered on β-Turn Amino Acids Unit Improve Selectivity and Stability” (Frontiers in Microbiology, 2018).
≈ marks a conversion by molar mass, not a printed value. Residues, ends and D or L forms follow the SMILES beside them.

What was measured:
[1] = RP-HPLC retention time as measure of relative hydrophobicity; assay type: physicochemical; settings: analytical RP-HPLC; hydrophobicity increases with retention time
Protocol: These peptides' […] identified via matrix-assisted laser desorption/ionization time-of-flight mass spectrometry (MALDI-TOF MS, Linear Scientific Inc., United States), using α-cyano-4-hydroxycinnamic acid as the matrix. […] Quantitative peptides were dissolved in deionized water and stored at -20°C before the assessments. The rest of the peptides were stored as powders at -20°C to prevent peptide degradation. The structures and molecular weights of the peptides were verified by MALDI-TOF MS. […] The relative hydrophobicity of the symmetric-end peptides was reliably reflected by their different HPLC retention times, and the hydrophobicity increased with increasing HPLC retention times ([Lee et al., 2014]; [Zhu et al., 2014]). The HPLC retention times for […]

B. pyocyaneum ATCC 27853 = assay type: cell-based, Bacterium pyocyaneum
Protocol: (§1) The minimal inhibitory concentration (MIC) was determined according to a previously described method ([Chou et al., 2016]). Bacteria were cultured overnight to mid-log phase in MHB at 37°C and then diluted to give final concentrations ranging from 2 × 10^5 to 7 × 10^5 CFU/mL. Then, 50 μL of serial twofold dilutions of the peptides were added to each well in 96-well microtiter plates with a mixed solution containing 0.01% acetic acid and 0.2% bovine serum albumin (BSA, Sigma) was used to dissolve and dilute the peptides. Then, equal amounts of bacterial aliquots were incubated with the above peptide solution for 18–24 h at 37°C. The experiment was performed in triplicate using three replicates for each peptide and each bacterium. The broth was employed as a negative control and the broth with microbial cells was used as a positive control. The lowest concentration of peptide that prevented visible turbidity was defined as the MIC.

S. aureus ATCC 29213 = assay type: cell-based, Staphylococcus aureus
Protocol: as §1, with “18-24” for “18–24”, “MIC. The condition sensitivity of peptides was tested in an MIC assay in different environments, including salt sensitivity, thermal sensitivity and different pH values similar to our previous method ([[…] et al., 2008]; [Ma et al., 2012]). […] For the heat resistance experiments, the peptides were incubated at 100°C for 30 min and cooled on ice for 10 min. […] The determination methods for these MIC assays were same as described above. To test the effects of serum on the antimicrobial activities of the peptides, human serum was dissolved in MHB to reach final concentrations of 25 and 50%. The determination methods for these MIC assays were same as described above.” for “MIC.”

[2] = Calcein dye leakage from negatively charged LUVs; settings: POPG/CL (3:1) LUVs, 100 μM lipid, 15 min, all tested concentrations (2 to 64 μM); relative to 0.1% Triton X-100
Protocol: Prepared calcein-entrapped large unilamellar vesicles (LUVs) were optimized using a previous method ([Stromstedt et al., 2009]). The negatively charged lipids composed of POPG/CL (3:1) were dissolved in chloroform, dried with a stream of nitrogen and resuspended in dye buffer solution (70 mM calcein, 10 mM Tris, 150 mM NaCl, and 0.1 mM EDTA, pH 7.4). The suspension was subjected to 10 freeze-thaw cycles in liquid nitrogen and extruded 21 times through polycarbonate filters (two stacked 100-nm pore size filters) with a LiposoFast extruder (Avestin, Inc., Canada). Untrapped calcein was removed by gel filtration on a Sephadex G-50 column. The lipid concentration was determined by quantitative phosphorus analysis. […] The leakage of calcein from LUVs was monitored by measuring the fluorescence intensity at an excitation wavelength of 490 nm and an emission wavelength of 520 nm on an F-4500 Fluorescence Spectrophotometer (Hitachi, Japan). […] The percentage of the calcein release caused by the AMPs was calculated using the following equation: (3) Dye release (%)=(Fobs−F0)/(F100−F0)×100% where F0 is the fluorescence intensity of the liposomes (background) and Fobs and F100 are the fluorescence intensities achieved by the peptides and Triton X-100, respectively.

E. coli ATCC25922 = assay type: cell-based, Escherichia coli
Protocol: as §1, with “18-24” for “18–24”, “MIC. The condition sensitivity of peptides was tested in an MIC assay in different environments, including salt sensitivity, thermal sensitivity and different pH values similar to our previous method ([[…] et al., 2008]; [Ma et al., 2012]). […] For the heat resistance experiments, the peptides were incubated at 100°C for 30 min and cooled on ice for 10 min. […] The determination methods for these MIC assays were same as described above. To test the effects of serum on the antimicrobial activities of the peptides, human serum was dissolved in MHB to reach final concentrations of 25 and 50%. The determination methods for these MIC assays were same as described above.” for “MIC.”

CC[C@H](C)[C@H](N)C(=O)N[C@@H](Cc1c[nH]cn1)C(=O)N[C@@H](CCCCN)C(=O)N[C@@H](Cc1ccccc1)C(=O)N[C@@H](Cc1c[nH]c2ccccc12)C(=O)N[C@@H](CCCNC(=N)N)C(=O)N[C@@H](CS)C(=O)N[C@@H](CCCNC(=N)N)C(=O)N[C@@H](CCCNC(=N)N)C(=O)N[C@@H](CCCNC(=N)N)C(=O)N[C@@H](Cc1ccccc1)C(=O)N[C@@H](CS)C(=O)N[C@@H](CCCNC(=N)N)C(=O)N[C@@H](Cc1c[nH]c2ccccc12)C(=O)N[C@@H](Cc1ccccc1)C(=O)N[C@@H](CCCCN)C(=O)N[C@@H](Cc1c[nH]cn1)C(=O)N[C@H](C(N)=O)[C@@H](C)CC [PQ] (H-IHKFWRCRRRFCRWFKHI-NH2; N-terminus assumed)
Retained time (HPLC retention time) [1]: 12.385 min | MIC (B. pyocyaneum ATCC 27853): 8 µM (≈ 20.6 µg/mL) | MIC (S. aureus ATCC 29213; ATCC 29213): 8 µM (≈ 20.6 µg/mL) | MIC, CaCl2 (S. aureus ATCC 29213; ATCC 29213): 8 µM (≈ 20.6 µg/mL) | MIC, Control (S. aureus ATCC 29213; ATCC 29213): 8 µM (≈ 20.6 µg/mL) | MIC, FeCl3 (S. aureus ATCC 29213; ATCC 29213): 8 µM (≈ 20.6 µg/mL) | MIC, Heat (100°C) (S. aureus ATCC 29213; ATCC 29213): 32 µM (≈ 82.4 µg/mL) | MIC, KCl (S. aureus ATCC 29213; ATCC 29213): 8 µM (≈ 20.6 µg/mL) | MIC, MgCl2 (S. aureus ATCC 29213; ATCC 29213): 8 µM (≈ 20.6 µg/mL) | MIC, NH4Cl (S. aureus ATCC 29213; ATCC 29213): 8 µM (≈ 20.6 µg/mL) | MIC, NaCl (S. aureus ATCC 29213; ATCC 29213): 8 µM (≈ 20.6 µg/mL) | MIC, ZnCl2 (S. aureus ATCC 29213; ATCC 29213): 8 µM (≈ 20.6 µg/mL) | MIC, pH 4.0 (S. aureus ATCC 29213; ATCC 29213, pH 4): 8 μM | MIC, pH 6.0 (S. aureus ATCC 29213; ATCC 29213, pH 6): 8 μM | MIC, pH 8.0 (S. aureus ATCC 29213; ATCC 29213, pH 8): 8 μM | MIC, pH 10.0 (S. aureus ATCC 29213; ATCC 29213, pH 10): 8 μM | Dye leakage (calcein release) [2]: more than 40% | MIC (E. coli ATCC25922; ATCC25922): 16 µM (≈ 41.2 µg/mL) | MIC, CaCl2 (E. coli ATCC25922; ATCC25922): 32 µM (≈ 82.4 µg/mL) | MIC, Control (E. coli ATCC25922; ATCC25922): 16 µM (≈ 41.2 µg/mL) | MIC, FeCl3 (E. coli ATCC25922; ATCC25922): 8 µM (≈ 20.6 µg/mL) | MIC, Heat (100°C) (E. coli ATCC25922; ATCC25922): 32 µM (≈ 82.4 µg/mL) | MIC, KCl (E. coli ATCC25922; ATCC25922): 4 µM (≈ 10.3 µg/mL) | MIC, MgCl2 (E. coli ATCC25922; ATCC25922): 4 µM (≈ 10.3 µg/mL) | MIC, NH4Cl (E. coli ATCC25922; ATCC25922): 4 µM (≈ 10.3 µg/mL) | MIC, NaCl (E. coli ATCC25922; ATCC25922): 8 µM (≈ 20.6 µg/mL) | MIC, ZnCl2 (E. coli ATCC25922; ATCC25922): 4 µM (≈ 10.3 µg/mL) | MIC, pH 4.0 (E. coli ATCC25922; ATCC25922, pH 4): 8 μM | MIC, pH 6.0 (E. coli ATCC25922; ATCC25922, pH 6): 8 μM | MIC, pH 8.0 (E. coli ATCC25922; ATCC25922, pH 8): 4 μM | MIC, pH 10.0 (E. coli ATCC25922; ATCC25922, pH 10): 4 μM
